Molecular target: T1, Est1E (uncultured bacterium, UniProt A0A345Z1H0)
T1 construct: 3 extra residues kept; no His tag; 29 kDa theoretical; purified by ion exchange and gel filtration
T1 sequence (A0A345Z1H0 1-248): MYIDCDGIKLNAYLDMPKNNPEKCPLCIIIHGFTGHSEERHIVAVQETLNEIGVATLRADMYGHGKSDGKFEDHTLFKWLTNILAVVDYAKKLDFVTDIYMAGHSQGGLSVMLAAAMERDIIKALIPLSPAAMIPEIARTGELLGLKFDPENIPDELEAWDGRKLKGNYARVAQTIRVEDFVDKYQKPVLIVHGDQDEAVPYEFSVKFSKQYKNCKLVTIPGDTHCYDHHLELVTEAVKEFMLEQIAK
Assay: absorbance at […] nm of released 2-chloro-4-nitrophenol
Format: biochemical
Conditions: about […] substrate in PBST pH […] °C, […] min (assay as described for culture supernatant; also run on purified enzyme)

`COc1cc(/C=C/C(=O)Oc2ccc([N+](=O)[O-])cc2Cl)ccc1O` [CNPF, 2-chloro-4-nitrophenyl ferulate] was tested, and the “absorbance at 410 nm of released 2-chloro-4-nitrophenol” value was “The activity of Est1E in the supernatant was measured by means of 2-chloro-4-nitrophenyl ferulate (CNPF)”.
